The structures appear in SMILES notation. Some results are limits rather than exact numbers.

Test [1] addresses T1, Glutamate receptor ionotropic, AMPA (Rattus norvegicus, UniProt P19490+P19491+P19492+P19493). Nature of the test: Binding affinity towards ionotropic glutamate receptor AMPA in rat cortical membranes using [3H]AMPA radioligand. The format is cell membranes.
Test [2] has as its target T2, Glutamate receptor ionotropic, NMDA 1 (Rattus norvegicus, UniProt P35439). In words: Binding affinity towards N-methyl-D-aspartate glutamate receptor 1 in rat cortical membranes using [3H]glycine as radioligand. The format is cell membranes.
Test [3] has as its target T2, Glutamate receptor ionotropic, NMDA 1. In words: Functional antagonism at the N-methyl-D-aspartate glutamate receptor 1 was demonstarted by the ability to inhibit the binding of the channel-blocking agent [3H](+)-MK-801.
Test [4] shares this target. Nature of the test: Functional antagonism at the NMDA receptor-ion channel complex was demonstarted by the ability to inhibit the binding of the channel-blocking agent [3H](+)-MK-801.
Test [5] has the same target. Nature of the test: The compound was tested for its binding affinity towards Glycine/NMDA receptor in rat cortical membranes using [3H]glycine as radioligand. The class given is cell membranes.
Test [6] addresses T1, Glutamate receptor ionotropic, AMPA. In words: The compound was tested for its binding affinity towards AMPA receptor in rat cortical membranes using [3H]AMPA radioligand. The class given is cell membranes.

On to `O=C(O)c1nc2c(O)nc3ccc([N+](=O)[O-])cc3n2n1`, for which the Ki in test [1] came to 10.7 µM; in test [2], 79.4 µM. The compound further had an EC50 in test [3] greater than 100 µM.

With `O=C(O)c1nc2c(=O)[nH]c3cc([N+](=O)[O-])ccc3n2n1`, the Ki turned out to be 0.6 µM in test [1] and 0.71 µM in test [2]. In test [3], it took 7.8 µM to reach a half-maximal effect (EC50).

For `O=C(O)c1nc2c(=O)[nH]c3cc(Cl)c(Cl)cc3n2n1`, the Ki came out at 1.3 µM in test [1] and 0.074 µM in test [5]. The compound also gave an EC50 in test [4] of 0.3 µM.

In the case of `COC(=O)CNC(=O)c1nc2c(=O)[nH]c3cc(Cl)ccc3n2n1`, the Ki was 4.1 µM in test [1] and 5.4 µM in test [2].

As to `CCOC(=O)c1nc2c(=O)[nH]c3cc(N)ccc3n2n1`, the Ki in test [1] and in test [2] was greater than 100 µM in each case. This compound also returned an EC50 in test [3] greater than 100 µM.

With `CCOC(=O)c1nc2c(O)nc3cc(Cl)c(Cl)cc3n2n1`, the Ki in test [1] worked out at 33.9 µM; in test [2], 0.71 µM. The EC50 in test [3] is 1.5 µM.

Regarding `CCOC(=O)c1nc2c(=O)[nH]c3cc(Cl)cc(Cl)c3n2n1`, the Ki came to 4.9 µM in test [1] and 4.8 µM in test [2].

Turning to `O=C(NO)c1nc2c(O)nc3cc(Cl)ccc3n2n1`, the Ki was found to be 1.1 µM in test [5] and 3 µM in test [6].

For `NC(=O)c1nc2c(=O)[nH]c3cc(Cl)ccc3n2n1`, the Ki in test [1] worked out at 11.7 µM; in test [2] it was 7.2 µM.

As to `O=C(O)c1nc2c(=O)[nH]c3ccc(Cl)cc3n2n1`, the values for the Ki in test [1] and in test [2] were 18.4 µM and 3.5 µM, respectively. This compound also displayed a half-maximal effective concentration (EC50) in test [3] of 32.5 µM.

In the case of `CCOC(=O)c1nc2c(=O)[nH]c3ccc(Cl)cc3n2n1`, the Ki stood at 72.1 µM in test [1] and 88.2 µM in test [2].

For `NNC(=O)c1nc2c(=O)[nH]c3cc(Cl)ccc3n2n1`, the Ki in test [5] turned out to be 9.6 µM; in test [6] it was 5 µM.

For `OCc1nc2c(O)nc3cc(Cl)ccc3n2n1`, the Ki turned out to be 4.4 µM in test [1] and 7.5 µM in test [2].

As to `O=C(O)c1nc2c(O)nc3c([N+](=O)[O-])cc(Cl)cc3n2n1`, the Ki in test [1] amounted to 4 µM; in test [2] it was 4.5 µM. This compound had an EC50 in test [3] greater than 100 µM.

On to `O=C(O)c1nc2c(=O)[nH]c3ccccc3n2n1`, for which the Ki in test [1] was determined as 13.6 µM; in test [2], 1.1 µM. Also, the EC50 in test [3] came out at 4.9 µM.

For `O=C(O)CNC(=O)c1nc2c(O)nc3cc(Cl)ccc3n2n1`, the inhibition constant (Ki) in test [1] was determined as 3.2 µM; in test [2], 8.8 µM.

As for `O=C(O)c1cc(O)c2c(Cl)cc(Cl)cc2n1`, the EC50 in test [3] turned out to be 0.33 µM.

As to `O=C(Nc1nn[nH]n1)c1nc2c(O)nc3cc(Cl)ccc3n2n1`, the Ki came out at 2.4 µM in test [1] and 5.1 µM in test [2].

Regarding `O=C(O)c1nc2c(O)nc3cc(Cl)c([N+](=O)[O-])cc3n2n1`, the Ki in test [1] turned out to be 1.2 µM; in test [2], 2.2 µM.

Take `N#CCc1nc2c(O)nc3cc(Cl)ccc3n2n1`: the Ki is 2 µM in test [1] and 9.7 µM in test [2].

Consider `CCOC(=O)c1nc2c(O)nc3ccccc3n2n1`, for which the values for the Ki in test [1] and in test [2] were 28.5 µM and 16.7 µM, respectively. Also, in test [3], the EC50 worked out at 69 µM.

In the case of `O=C(O)c1nc2c(=O)[nH]c3cc(Cl)cc(Cl)c3n2n1`, the Ki was found to be 1.53 µM in test [1] and 0.14 µM in test [2]. Further, the EC50 in test [3] is 1.35 µM.

On to `CCn1c(=O)c2nc(C(=O)O)nn2c2ccc(Cl)cc21`, for which the Ki in test [1] was greater than 100 µM; in test [2] it was 88 µM. The compound further returned an EC50 in test [3] greater than 100 µM.

For the compound `O=C(O)c1nc2c(=O)[nH]c3cc(Br)ccc3n2n1`, the Ki in test [1] was 4.4 µM; in test [2] it was 0.39 µM. Also, the EC50 in test [3] turned out to be 3.7 µM.

Consider `CCOC(=O)c1nc2c(=O)[nH]c3cc(C(F)(F)F)ccc3n2n1`, for which the Ki was found to be 3.6 µM in test [1] and 1.8 µM in test [2].

For `O=C(O)c1nc2c(O)nc3cc(C(F)(F)F)ccc3n2n1`, the results for the Ki in test [1] and in test [2] were 0.9 µM and 0.57 µM, respectively. In test [3], this compound registered an EC50 of 3.18 µM.

In the case of `O=C(NCCO)c1nc2c(O)nc3cc(Cl)ccc3n2n1`, the results for the Ki in test [1] and in test [2] were 7.7 µM and 27.7 µM, respectively.

Turning to `O=C(O)c1nc2c(O)nc3cc(Cl)ccc3n2n1`, the Ki turned out to be 0.78 µM in test [1] and 0.17 µM in test [2]. Further, in test [3], the EC50 is 2.9 µM.

As for `CCOC(=O)Cc1nc2c(=O)[nH]c3cc(Cl)ccc3n2n1`, the Ki was determined as 2.1 µM in test [1] and 6.5 µM in test [2].

In the case of `O=C(O)Cc1nc2c(O)nc3cc(Cl)ccc3n2n1`, the Ki in test [1] amounted to 3.7 µM; in test [2] it was 1.1 µM.

On to `CCOC(=O)c1nc2c(O)nc3cc(Cl)ccc3n2n1`, for which the Ki came to 2.6 µM in test [1] and 3 µM in test [2]. In addition, it took 22.1 µM to reach a half-maximal effect in test [3] (EC50).

Take `CCOC(=O)c1nc2c(O)nc3cc(Br)ccc3n2n1`: the Ki in test [1] is 3.3 µM; in test [2] it was 2.6 µM.

As usually defined, the Ki is a measure of affinity in units of concentration, obtained from inhibition or displacement. What is called EC50 is the concentration that produces a half-maximal response. A low value points to a more potent agent.
